Reference: PubChem BioAssay (NCI)
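Interpolation was linear, between the two tested concentrations surrounding the appropriate level; five concentrations were tested over 48 hours in 96-well plates. Here, GI50 denotes the concentration required for 50% inhibition of growth. Definition used: TGI = concentration required for complete inhibition of growth.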

Legend:
Experiment in all cases: NCI-60 cell line screen, 48 h; in the data active means GI50 below about 0.43 µM; inactive means the rest
786-0 renal = tested on: 786-0 renal
A498 renal = tested on: A498 renal
A549 NSCLC = tested on: A549 NSCLC
ACHN renal = tested on: ACHN renal
CAKI-1 renal = tested on: CAKI-1 renal
COLO 205 colon = tested on: COLO 205 colon
DU-145 prostate = tested on: DU-145 prostate
EKVX NSCLC = tested on: EKVX NSCLC
HCC-2998 colon = tested on: HCC-2998 colon
HCT-116 colon = tested on: HCT-116 colon
HCT-15 colon = tested on: HCT-15 colon
HL-60(TB) leukemia = tested on: HL-60(TB) leukemia
HOP-62 NSCLC = tested on: HOP-62 NSCLC
HOP-92 NSCLC = tested on: HOP-92 NSCLC
HS 578T breast = tested on: HS 578T breast
HT29 colon = tested on: HT29 colon
IGROV1 ovarian = tested on: IGROV1 ovarian
K-562 leukemia = tested on: K-562 leukemia
LOX IMVI melanoma = tested on: LOX IMVI melanoma
M14 melanoma = tested on: M14 melanoma
MALME-3M melanoma = tested on: MALME-3M melanoma
MCF7 breast = tested on: MCF7 breast
MDA-MB-231 breast = tested on: MDA-MB-231 breast
MDA-MB-435 = tested on: MDA-MB-435
MDA-N = tested on: MDA-N
MOLT-4 leukemia = tested on: MOLT-4 leukemia
NCI-H226 lung = tested on: NCI-H226 lung
NCI-H23 lung = tested on: NCI-H23 lung
NCI-H460 lung = tested on: NCI-H460 lung
NCI-H522 lung = tested on: NCI-H522 lung
NCI/ADR-RES ovarian = tested on: NCI/ADR-RES ovarian
OVCAR-3 ovarian = tested on: OVCAR-3 ovarian
OVCAR-4 ovarian = tested on: OVCAR-4 ovarian
OVCAR-5 ovarian = tested on: OVCAR-5 ovarian
PC-3 prostate = tested on: PC-3 prostate
RPMI-8226 leukemia = tested on: RPMI-8226 leukemia
RXF 393 renal = tested on: RXF 393 renal
SF-268 CNS = tested on: SF-268 CNS
SF-295 CNS = tested on: SF-295 CNS
SF-539 CNS = tested on: SF-539 CNS
SK-MEL-2 melanoma = tested on: SK-MEL-2 melanoma
SK-MEL-28 melanoma = tested on: SK-MEL-28 melanoma
SK-MEL-5 melanoma = tested on: SK-MEL-5 melanoma
SK-OV-3 ovarian = tested on: SK-OV-3 ovarian
SN12C renal = tested on: SN12C renal
SNB-19 CNS = tested on: SNB-19 CNS
SR leukemia = tested on: SR leukemia
SW-620 colon = tested on: SW-620 colon
T-47D breast = tested on: T-47D breast
TK-10 renal = tested on: TK-10 renal
U251 CNS = tested on: U251 CNS
UACC-257 melanoma = tested on: UACC-257 melanoma
UACC-62 melanoma = tested on: UACC-62 melanoma
UO-31 renal = tested on: UO-31 renal
BT-549 breast = tested on: BT-549 breast
OVCAR-8 ovarian = tested on: OVCAR-8 ovarian
SNB-75 CNS = tested on: SNB-75 CNS
CCRF-CEM leukemia = tested on: CCRF-CEM leukemia
KM12 colon = tested on: KM12 colon

C=CC[C@@]12CCC(=O)C=C1CCCC2=O
> 100 µM: TGI (786-0 renal) | TGI (A498 renal) | TGI (A549 NSCLC) | TGI (ACHN renal) | TGI (CAKI-1 renal) | TGI (COLO 205 colon) | TGI (DU-145 prostate) | TGI (EKVX NSCLC) | TGI (HCC-2998 colon) | TGI (HCT-116 colon) | TGI (HCT-15 colon) | TGI (HL-60(TB) leukemia) | TGI (HOP-62 NSCLC) | TGI (HOP-92 NSCLC) | TGI (HS 578T breast) | TGI (HT29 colon) | TGI (IGROV1 ovarian) | TGI (K-562 leukemia) | TGI (LOX IMVI melanoma) | TGI (M14 melanoma) | TGI (MALME-3M melanoma) | TGI (MCF7 breast) | TGI (MDA-MB-231 breast) | TGI (MDA-MB-435) | TGI (MDA-N) | TGI (MOLT-4 leukemia) | TGI (NCI-H226 lung) | TGI (NCI-H23 lung) | TGI (NCI-H460 lung) | TGI (NCI-H522 lung) | TGI (NCI/ADR-RES ovarian) | TGI (OVCAR-3 ovarian) | TGI (OVCAR-4 ovarian) | TGI (OVCAR-5 ovarian) | TGI (PC-3 prostate) | TGI (RPMI-8226 leukemia) | TGI (RXF 393 renal) | TGI (SF-268 CNS) | TGI (SF-295 CNS) | TGI (SF-539 CNS) | TGI (SK-MEL-2 melanoma) | TGI (SK-MEL-28 melanoma) | TGI (SK-MEL-5 melanoma) | TGI (SK-OV-3 ovarian) | TGI (SN12C renal) | TGI (SNB-19 CNS) | TGI (SR leukemia) | TGI (SW-620 colon) | TGI (T-47D breast) | TGI (TK-10 renal) | TGI (U251 CNS) | TGI (UACC-257 melanoma) | TGI (UACC-62 melanoma) | TGI (UO-31 renal)

COc1cc(O)c2c(=O)c(OC)c(-c3ccc(OC)c(OC)c3)oc2c1.[Zn+2]
35.9 µM: TGI (SF-295 CNS)
45.6 µM: TGI (RXF 393 renal)
65.4 µM: TGI (MDA-MB-231 breast)
47.2 µM: TGI (SK-OV-3 ovarian)
35.7 µM: TGI (OVCAR-3 ovarian)
24.1 µM: TGI (NCI-H522 lung)
> 100 µM: TGI (786-0 renal) | TGI (A549 NSCLC) | TGI (ACHN renal) | TGI (BT-549 breast) | TGI (CAKI-1 renal) | TGI (COLO 205 colon) | TGI (DU-145 prostate) | TGI (EKVX NSCLC) | TGI (HCC-2998 colon) | TGI (HCT-116 colon) | TGI (HL-60(TB) leukemia) | TGI (HT29 colon) | TGI (IGROV1 ovarian) | TGI (K-562 leukemia) | TGI (LOX IMVI melanoma) | TGI (M14 melanoma) | TGI (MALME-3M melanoma) | TGI (MCF7 breast) | TGI (MDA-N) | TGI (MOLT-4 leukemia) | TGI (NCI-H226 lung) | TGI (NCI-H460 lung) | TGI (NCI/ADR-RES ovarian) | TGI (OVCAR-5 ovarian) | TGI (OVCAR-8 ovarian) | TGI (PC-3 prostate) | TGI (RPMI-8226 leukemia) | TGI (SF-268 CNS) | TGI (SF-539 CNS) | TGI (SK-MEL-28 melanoma) | TGI (SK-MEL-5 melanoma) | TGI (SN12C renal) | TGI (SNB-19 CNS) | TGI (SR leukemia) | TGI (SW-620 colon) | TGI (T-47D breast) | TGI (TK-10 renal) | TGI (UACC-62 melanoma) | TGI (UO-31 renal)
11.4 µM: TGI (HOP-62 NSCLC)
32.2 µM: TGI (OVCAR-4 ovarian)
8.79 µM: TGI (SNB-75 CNS)
9.49 µM: TGI (HS 578T breast)
inactive: GI50 (ACHN renal) 35.4 µM | GI50 (DU-145 prostate) 24.6 µM | GI50 (EKVX NSCLC) 25.7 µM | GI50 (HCC-2998 colon) 43.1 µM | GI50 (HCT-116 colon) 22.6 µM | GI50 (HOP-62 NSCLC) 2.87 µM | GI50 (HT29 colon) 41.8 µM | GI50 (IGROV1 ovarian) 29.8 µM | GI50 (K-562 leukemia) 41.6 µM | GI50 (LOX IMVI melanoma) 7.68 µM | GI50 (M14 melanoma) 45.4 µM | GI50 (MALME-3M melanoma) 33.3 µM | GI50 (MCF7 breast) 92.3 µM | GI50 (MDA-MB-231 breast) 3.83 µM | GI50 (MOLT-4 leukemia) > 100 µM | GI50 (NCI/ADR-RES ovarian) 14.9 µM | GI50 (OVCAR-3 ovarian) 14.1 µM | GI50 (OVCAR-4 ovarian) 4.19 µM | GI50 (OVCAR-5 ovarian) > 100 µM | GI50 (OVCAR-8 ovarian) 13.2 µM | GI50 (PC-3 prostate) 9.18 µM | GI50 (SF-268 CNS) 12.9 µM | GI50 (SF-295 CNS) 5.57 µM | GI50 (SK-MEL-28 melanoma) > 100 µM | GI50 (SK-MEL-5 melanoma) 17.6 µM | GI50 (SNB-19 CNS) 4.31 µM | GI50 (SR leukemia) > 100 µM | GI50 (T-47D breast) 5.7 µM | GI50 (UACC-62 melanoma) 11.7 µM

CC(C)(C)Cc1cc(O)ccc1O
93.9 µM: TGI (CCRF-CEM leukemia)
86.7 µM: TGI (NCI-H522 lung)
94.5 µM: TGI (NCI/ADR-RES ovarian)
> 100 µM: TGI (786-0 renal) | TGI (A498 renal) | TGI (A549 NSCLC) | TGI (ACHN renal) | TGI (BT-549 breast) | TGI (CAKI-1 renal) | TGI (COLO 205 colon) | TGI (DU-145 prostate) | TGI (EKVX NSCLC) | TGI (HCC-2998 colon) | TGI (HCT-116 colon) | TGI (HCT-15 colon) | TGI (HOP-62 NSCLC) | TGI (HOP-92 NSCLC) | TGI (HT29 colon) | TGI (IGROV1 ovarian) | TGI (K-562 leukemia) | TGI (KM12 colon) | TGI (LOX IMVI melanoma) | TGI (M14 melanoma) | TGI (MALME-3M melanoma) | TGI (MCF7 breast) | TGI (MDA-MB-231 breast) | TGI (MDA-MB-435) | TGI (MDA-N) | TGI (MOLT-4 leukemia) | TGI (NCI-H226 lung) | TGI (NCI-H23 lung) | TGI (NCI-H460 lung) | TGI (OVCAR-3 ovarian) | TGI (OVCAR-4 ovarian) | TGI (OVCAR-5 ovarian) | TGI (OVCAR-8 ovarian) | TGI (PC-3 prostate) | TGI (RXF 393 renal) | TGI (SF-268 CNS) | TGI (SF-295 CNS) | TGI (SF-539 CNS) | TGI (SK-MEL-28 melanoma) | TGI (SK-OV-3 ovarian) | TGI (SN12C renal) | TGI (SNB-19 CNS) | TGI (SNB-75 CNS) | TGI (SR leukemia) | TGI (SW-620 colon) | TGI (T-47D breast) | TGI (TK-10 renal) | TGI (U251 CNS) | TGI (UACC-257 melanoma) | TGI (UACC-62 melanoma) | TGI (UO-31 renal)
26.6 µM: TGI (HL-60(TB) leukemia)
